The experiment concerns the target Alpha-glucosidase MAL12 (Saccharomyces cerevisiae (strain ATCC 204508 / S288c), UniProt P53341). Description: Glucosidase assay. Conditions: pH 6.8; 37 °C. The method, then:
Reaction mixture (100 µL) contained 70 µL 50 mM Na2HPO4 buffer, pH 6.8, 10 µL test compound (0.5 mM), followed by the addition of 10 µL enzyme (0.0234 units). The mixture was pre-incubated for 10 min at 37 °C and pre-read at 400 nm. The reaction was initiated by the addition of 10 µL of 0.5 mM substrate (p-nitrophenyl glucopyranoside) and incubated at 37 °C for 30 min. The absorbance of p-nitrophenol was measured at 400 nm.

Six compounds from BindingDB's records for doi:10.1016/j.bioorg.2014.05.003 (Comsats Institute of Information Technology, 2014) can be followed below.

In general, pIC50 refers to −log10 of the IC50, conventionally taken in molar units.

pIC50: −log10 of the molar value.

Alpha-glucosidase MAL12, sequence (P53341 whole entry): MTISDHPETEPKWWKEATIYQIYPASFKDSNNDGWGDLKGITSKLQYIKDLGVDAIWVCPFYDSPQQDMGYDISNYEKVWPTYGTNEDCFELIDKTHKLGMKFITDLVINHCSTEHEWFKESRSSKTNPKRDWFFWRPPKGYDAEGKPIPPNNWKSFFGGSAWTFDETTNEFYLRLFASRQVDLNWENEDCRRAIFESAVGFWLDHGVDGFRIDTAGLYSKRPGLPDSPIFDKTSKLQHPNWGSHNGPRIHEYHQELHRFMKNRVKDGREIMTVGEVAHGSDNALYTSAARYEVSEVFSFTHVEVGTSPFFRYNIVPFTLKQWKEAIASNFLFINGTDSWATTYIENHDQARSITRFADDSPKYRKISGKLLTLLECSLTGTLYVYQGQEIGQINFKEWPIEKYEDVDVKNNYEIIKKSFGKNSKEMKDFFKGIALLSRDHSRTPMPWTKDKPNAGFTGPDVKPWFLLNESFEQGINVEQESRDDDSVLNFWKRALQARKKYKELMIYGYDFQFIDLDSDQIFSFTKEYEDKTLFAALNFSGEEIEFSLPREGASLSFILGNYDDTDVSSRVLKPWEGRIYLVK

As for `CCOC(=O)[C@H]1[C@@H]2NC(=O)NC1(C)Oc1ccccc12` [(+-)2,6-Methano-4-oxo-3,4,5,6-tetrahydro-2H-[1,3,5]benzoxadiazocines (4d)], the pIC50 is 3.91.

Compound `CCOC(=O)C1C(C)=NC(=O)NC1c1ccc(Cl)cc1` (stereo unspecified) [Ethyl 4-(4-chlorophenyl)-6-methyl-2-oxo-1,2,3,4-tetrahydropyrimidine-5-carboxylate (4b)] had a pIC50 of 3.67.

`CCOC(=O)C1C(C)=NC(=O)NC1c1ccc(O)c(OC)c1` (stereo unspecified) [Ethyl 4-(4-hydroxy-3-methoxyphenyl)-6-methyl-2-oxo-1,2,3,4-tetrahydropyrimidine-5-carboxylate (4e)] gave a pIC50 of 3.52.

`CCOC(=O)C1C(C)=NC(=O)NC1c1ccccc1` (stereo unspecified) [Ethyl 6-methyl-2-oxo-4-phenyl-1,2,3,4-tetrahydropyrimidine-5-carboxylate (4a)] gave a pIC50 of 3.84. Against the preceding compound, the pIC50 is 0.32 log units higher.

Consider `CCOC(=O)C1C(C)=NC(=O)NC1c1ccc(C)cc1` (stereo unspecified) [Ethyl 6-methyl-4-(4-methylphenyl)-2-oxo-1,2,3,4-tetrahydropyrimidine-5-carboxylate (4f)], for which the pIC50 was 3.95.

As to `CCOC(=O)C1C(C)=NC(=S)NC1c1ccc(C)cc1` (stereo unspecified) [Ethyl 6-methyl-4-(4-methylphenyl)-2-thioxo-1,2,3,4-tetrahydropyrimidine-5-carboxylate (4l)], the pIC50 was 3.90.
